Values joined by “and” are separate entries in the source; they are usually repeats but may differ in a detail not shown here. Equal entries are not always repeated.
Tests used:
[1] = tested on: rabbit illiac artery smooth muscle cell cultures (RbIASMCs); test: In-vitro anti-proliferative potency, BrdU assay, rabbit smooth muscle cells; format: cell-based; conditions: BrdU incorporation, over 5 orders of magnitude concentration, compared with rapamycin
Text: (§1) In-vitro assessment of relative anti-proliferative effect of novel mTOR inhibitors 42-O-(oxetan-3-yl) rapamycin compound and 42-O-(tetrahydrofuran-3-yl) rapamycin compound with rapamycin was done on human and rabbit smooth muscle cell culture models. In which, human aorta and rabbit illiac artery smooth muscle cell cultures were subjected to increasing doses of 42-O-(oxetan-3-yl) rapamycin compound 42-O-(tetrahydrofuran-3-yl) rapamycin compound and rapamycin over 5 orders of magnitude concentration in the cell culture medium. The ability of the cell culture to reproduce was assessed after drug exposure by addition of a BromodeoxyUridine (BrdU) coloured reagent which causes a colour change in the surviving cells. The extent of colour development was quantified at 450 nm wavelength using a spectrophotometer microplate reader (BMG Labtech, FLUOstar OPTIMA). […] On the contrary, lower OD values reflect less incorporation on BrdU and a shift towards cell inhibition. Growth inhibition was calculated by subtracting positive control OD values, which represent 100% uninhibited growth.

[2] = tested on: L-929 (ATCC cell lines CCL-1, NCTC clone 929) Mus musculus mouse fibroblast cells; test: In-vitro cytotoxicity test by extraction method; format: cell-based; conditions: extract in contact with L-929 cells for 48 hours
Description: In-vitro assessment was done to check the cytotoxic or necrotic potential of the 42-O-(tetrahydrofuran-3-yl) rapamycin and 42-O-(oxetan-3-yl) rapamycin compounds by extraction method. In this study extracts of test substance were kept in contact with a multiple culture of L-929 (ATCC cell lines CCL-1, NCTC clone 929) Mus musculus mouse fibroblast cells for 48 hours. The cells were examined microscopically to assess the changes for its general morphology, vacuolization, detachment, cell lysis and membrane integrity.

rabbit blood [3] = test: In-vitro haemolysis test; format: cell-based; conditions: for Haemolytic Index, Mean ± S. D.: mean of three test extracts, rabbit blood, 4 hrs
Description: Haemolysis test was conducted on rabbit blood by in-vitro method to check the haemolytic effect of 42-O-(tetrahydrofuran-3-yl) rapamycin (Merilimus-1) compound and 42-O-(oxetan-3-yl) rapamycin (Merilimus-2) compound. In this study the extracts of the test substances in triplicate were kept in contact with rabbit blood and incubated for 4 hrs. The concentration of plasma haemoglobin liberated in supernatant was calculated by comparing with absorbance of the standard solution in a spectrophotometer at 540 nm.

[4] = Stability analysis (HPLC purity on storage) with various concentrations of BHT at 40° C.; format: physicochemical; conditions: sealed container
Description: (§2) To check the purity of the 42-O-(heteroalkoxyalkyl) rapamycin compounds the following condition was followed by using High Performance Liquid Chromatography, Phenomenex Synergi Hydro-RP 80a (250×4.6 ) mm, 4 micron column. The mobile phase was 65:15:20 methanol:acetonitile:water mixture. The detector was set at 276 nm and the flow rate was adjusted to 1.5 mL/min. Column temperature was 40° C. 2.0 μg of 42-O-(heteroalkoxyalkyl) rapamycin compounds was injected onto the column in a volume of 5.0 μL methanol with run time of 50 min.
The inventors have also conducted the stability study of various 42-O-(heteroalkoxyalkyl) rapamycin compounds as mentioned above using various BHT concentrations. The study was conducted at 40° C. temperature in sealed container for 8 weeks.
42-O-(heteroalkoxyalkyl) rapamycin compounds obtained as per procedure described in Example 1 are respectively added with anti-oxidant, namely Butylated Hydroxytoluene (or BHT), at a concentration of 0.1%, 0.2%, 0.5%, and 1.0% (w/w) based on 100% (w/w) of 42-O-(heteroalkoxyalkyl) rapamycin compounds in sealed container to study the stability at 40° C. temperature. […] The purity data with the addition of different amounts of anti-oxidant as added to 42-O-(tetrahydrofuran-3-yl) rapamycin compound, 42-O-(oxetan-3-yl) rapamycin compound and 42-O-(tetrahydropyran-3-yl) rapamycin compound checked at different time intervals are summarized in Table 2B as below mentioned.

[5] = Stability analysis (HPLC purity on storage) without BHT at various temperatures; format: physicochemical; conditions: for Purity (%): without BHT
Description: as §2
The purity loss was higher at increased temperature, but there was no apparent change in the impurity profile. Table 2A presents the purity of various 42-O-(heteroalkoxyalkyl) rapamycin compounds at different time intervals and temperature conditions.

[6] = tested on: human aorta smooth muscle cell cultures (hAoSMCs); test: In-vitro anti-proliferative potency, BrdU assay, human smooth muscle cells; format: cell-based; conditions: BrdU incorporation, over 5 orders of magnitude concentration, compared with rapamycin
Text: as §1

rabbit blood [7] = test: Haemocompatibility test (thrombosis, coagulation, platelet count, leucocyte count); format: cell-based
Description: Haemocompatibility test is conducted to evaluate biological safety of the blood contacting 42-O-([…]) rapamycin and 42-O-(oxetan-3-yl) rapamycin compounds for the medical device. The interaction of test substance with rabbit blood was checked for thrombosis, coagulation, platelet count and leucocyte count.

[8] = test group, individual rabbits No. 1-3

COC1CC(C[C@H](C)[C@@H]2CC(=O)[C@H](C)/C=C(\C)C(O)[C@@H](OC)C(=O)[C@H](C)C[C@H](C)/C=C/C=C/C=C(\C)[C@@H](OC)C[C@@H]3CC[C@@H](C)[C@@](O)(O3)C(=O)C(=O)N3CCCC[C@H]3C(=O)O2)CCC1OC1COC1 (some centres unmarked) [Merilimus-2, 42-O-(oxetan-3-yl) rapamycin]
Growth suppression of smooth muscle cells (in words) [1]: more effectively inhibited growth of smooth muscle cells than rapamycin
Toxic effect on cells (in words) [2]: did not reveal any toxic effect on cells
Haemolytic Index (rabbit blood [3]; individual test extracts 1-3, rabbit blood, incubated 4 hrs, = Haemoglobin released/Haemoglobin present × 100): 1.9 (2×) and 2.0
Haemolytic Index, Mean ± S. D. (rabbit blood [3]): 1.9 ± 0.02
Haemolytic Index, Mean ± S. D. (rabbit blood [3]; listed as 42-O-(oxetan-3-yl) rapamycin): 1.9
Haemolytic nature (in words) (rabbit blood [3]; on the basis of haemolytic index): non-haemolytic
Purity (%) ([4]; BHT 0.0% (w/w), 0 week): 97.3%
Purity (%) ([4]; BHT 0.0% (w/w), 2 weeks): 95.5%
Purity (%) ([4]; BHT 0.0% (w/w), 4 weeks): 94.6%
Purity (%) ([4]; BHT 0.0% (w/w), 8 weeks): 93.6%
Purity (%) ([4]; BHT 0.1% (w/w), 0 week): 97.7%
Purity (%) ([4]; BHT 0.1% (w/w), 2 weeks): 97.5%
Purity (%) ([4]; BHT 0.1% (w/w), 4 weeks): 97.5%
Purity (%) ([4]; BHT 0.1% (w/w), 8 weeks): 97.5%
Purity (%) ([4]; BHT 0.2% (w/w), 0 week): 97.6%
Purity (%) ([4]; BHT 0.2% (w/w), 2 weeks): 97.6%
Purity (%) ([4]; BHT 0.2% (w/w), 4 weeks): 97.5%
Purity (%) ([4]; BHT 0.2% (w/w), 8 weeks): 97.5%
Purity (%) ([4]; BHT 0.5% (w/w), 0 week): 97.6%
Purity (%) ([4]; BHT 0.5% (w/w), 2 weeks): 97.5%
Purity (%) ([4]; BHT 0.5% (w/w), 4 weeks): 97.4%
Purity (%) ([4]; BHT 0.5% (w/w), 8 weeks): 97.4%
Purity (%) ([4]; BHT 1.0% (w/w), 0 week): 97.6%
Purity (%) ([4]; BHT 1.0% (w/w), 2 weeks): 97.5%
Purity (%) ([4]; BHT 1.0% (w/w), 4 weeks): 97.4%
Purity (%) ([4]; BHT 1.0% (w/w), 8 weeks): 97.4%
Purity after eight-weeks of storage ([4]; with various concentrations of BHT (concentration not given)): 97.4%
Stability (in words) ([5]; purified compounds without anti-oxidant): more thermally stable
Purity (%) ([5]; 5° C. (sealed), 00 weeks after synthesis): 97.7%
Purity (%) ([5]; 5° C. (sealed), 02 weeks after synthesis): 96.5%
Purity (%) ([5]; 5° C. (sealed), 04 weeks after synthesis): 95.6%
Purity (%) ([5]; 5° C. (sealed), 08 weeks after synthesis): 94.8%
Purity (%) ([5]; 5° C. (sealed), 12 weeks after synthesis): 94.2%
Purity (%) ([5]; 25° C. (sealed), 00 weeks after synthesis): 97.6%
Purity (%) ([5]; 25° C. (sealed), 02 weeks after synthesis): 96.2%
Purity (%) ([5]; 25° C. (sealed), 04 weeks after synthesis): 95.1%
Purity (%) ([5]; 25° C. (sealed), 08 weeks after synthesis): 94.5%
Purity (%) ([5]; 25° C. (sealed), 12 weeks after synthesis): 93.9%
Purity (%) ([5]; 25° C. (unsealed), 00 weeks after synthesis): 97.3%
Purity (%) ([5]; 25° C. (unsealed), 02 weeks after synthesis): 95.9%
Purity (%) ([5]; 25° C. (unsealed), 04 weeks after synthesis): 94.8%
Purity (%) ([5]; 25° C. (unsealed), 08 weeks after synthesis): 94.0%
Purity (%) ([5]; 25° C. (unsealed), 12 weeks after synthesis): 93.6%
Purity (%) ([5]; 40° C. (sealed), 00 weeks after synthesis): 97.3%
Purity (%) ([5]; 40° C. (sealed), 02 weeks after synthesis): 95.5%
Purity (%) ([5]; 40° C. (sealed), 04 weeks after synthesis): 94.6%
Purity (%) ([5]; 40° C. (sealed), 08 weeks after synthesis): 93.6%
Purity (%) ([5]; 40° C. (sealed), 12 weeks after synthesis): 92.7%
Growth suppression of smooth muscle cells (in words) [6]: more effectively inhibited growth of smooth muscle cells than rapamycin
Haemocompatibility (in words) (rabbit blood [7]; all haematological findings compared to control): haemocompatible
Coagulation (PTT in sec.) (rabbit blood [7]; [8]): 36 sec. (2×) and 38 sec.
Differential leucocyte count: Basophile % (rabbit blood [7]; [8]): 00%
Differential leucocyte count: Eosinophil % (rabbit blood [7]; [8]): 02% (2×) and 01%
Differential leucocyte count: Lymphocyte % (rabbit blood [7]; [8]): 44% and 50% and 49%
Differential leucocyte count: Monocyte % (rabbit blood [7]; [8]): 01%
Differential leucocyte count: Neutrophil % (rabbit blood [7]; [8]): 55% and 48% (2×)
Distribution of cells: Platelets (rabbit blood [7]; [8]): Normal
Distribution of cells: RBC (rabbit blood [7]; [8]): Normal
Distribution of cells: WBC (rabbit blood [7]; [8]): Normal
Leucocyte count (rabbit blood [7]; [8]): 7.5 Thousand/cmm (2×) and 6.5 Thousand/cmm
Platelet count (rabbit blood [7]; [8]): 4.9 lakhs/cmm and 4.5 lakhs/cmm (2×)
Thrombosis (rabbit blood [7]; [8]): Nil

From patent publication US9321782B2, “Process for preparation of novel 42-O-(heteroalkoxyalkyl) rapamicin compounds with anti-proliferative properties” (MERIL LIFE SCIENCES PVT. LTD., priority 2010, dated 2016)
